Biological target: T1, Sphingosine kinase 2 (Homo sapiens, UniProt Q9NRA0)
T1 sequence (Q9NRA0 whole entry): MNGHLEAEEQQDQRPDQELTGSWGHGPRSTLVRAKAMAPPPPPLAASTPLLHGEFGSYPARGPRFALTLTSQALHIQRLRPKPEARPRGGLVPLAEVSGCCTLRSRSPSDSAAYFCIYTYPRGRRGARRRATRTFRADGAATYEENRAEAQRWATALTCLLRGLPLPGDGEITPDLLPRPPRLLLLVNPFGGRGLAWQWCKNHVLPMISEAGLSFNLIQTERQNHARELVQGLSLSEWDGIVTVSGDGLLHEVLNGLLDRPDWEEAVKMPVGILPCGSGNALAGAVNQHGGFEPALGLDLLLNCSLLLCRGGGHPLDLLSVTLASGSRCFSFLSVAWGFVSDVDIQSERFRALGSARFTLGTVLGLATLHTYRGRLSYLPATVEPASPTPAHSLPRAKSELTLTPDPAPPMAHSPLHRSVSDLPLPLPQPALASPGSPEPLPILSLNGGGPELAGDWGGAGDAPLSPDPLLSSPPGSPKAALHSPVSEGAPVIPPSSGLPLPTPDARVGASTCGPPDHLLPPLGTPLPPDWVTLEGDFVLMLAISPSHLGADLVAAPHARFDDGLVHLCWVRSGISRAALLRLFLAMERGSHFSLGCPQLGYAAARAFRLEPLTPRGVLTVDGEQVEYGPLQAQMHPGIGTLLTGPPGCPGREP
Test: Inhibition of recombinant SphK2 (unknown origin) using sphingosine as substrate assessed as inhibition constant by Lineweaver-burk plot analysis
Details: not given

CCCCOc1ccc(CC/C=C2\SC(=O)N(CCN)C2=O)cc1 showed a Ki of 6.5 µM.

Test system: MCF7
Test: Antiproliferative activity against human MCF7 cells assessed as cell growth inhibition measured after 48 hrs by MTT assay
Assay type: functional, cell-based
Details: MCF7, 48 h

Compared with O=C(c1ccc(OCc2noc(-c3ccc(Cl)cc3)n2)cc1)N1CCC[C@H]1CO, O=C(c1ccc(OCc2noc(-c3ccc(Cl)cc3)n2)cc1)N1CCC[C@@H]1CO is 5.3-fold higher in IC50: 8.61 µM for the first, 45.3 µM for the second. The first is the more potent here.

Going from NC(=O)CNCc1ccc(COc2cccc(OCc3ccccc3)c2)cc1 to NC(=O)[C@H]1CCCN1Cc1ccc(COc2cccc(OCc3ccccc3)c2)cc1, the IC50 falls from 42.7 µM to 18.3 µM (2.3-fold). The second is the more potent here.

O=C(c1ccc(OCc2noc(-c3ccc(C(F)(F)F)cc3)n2)cc1)N1CCC[C@@H]1CO and NC(=O)[C@H]1CCCN1C(=O)c1ccc(OCc2noc(-c3ccc(C(F)(F)F)cc3)n2)cc1 are within 1.5-fold of each other in IC50: 21.1 µM for the first, 24.4 µM for the second.

Going from OC[C@@H]1CCCN1Cc1ccc(COc2cccc(OCc3ccccc3)c2)cc1 to O=C(c1ccc(COc2cccc(OCc3ccccc3)c2)cc1)N1CCC[C@@H]1CO, the IC50 falls from > 100 µM to 30.5 µM. The second is the more potent here.

NCCNC(=O)c1ccc(OCc2noc(-c3ccc(Cl)cc3)n2)cc1 and O=C(NCCO)c1ccc(OCc2noc(-c3ccc(Cl)cc3)n2)cc1 are within 1.5-fold of each other in IC50: 54 µM for the first, 55.2 µM for the second.

NC(=O)[C@H]1CCCN1C(=O)c1ccc(COc2cccc(OCc3ccccc3)c2)cc1 and NC(=O)[C@@H]1CCCN1C(=O)c1ccc(COc2cccc(OCc3ccccc3)c2)cc1 cannot be ordered by IC50: > 100 µM for the first, > 100 µM for the second.

NC(=O)[C@@H]1CCCN1C(=O)c1ccc(OCc2noc(-c3ccc(C(F)(F)F)cc3)n2)cc1 gave an IC50 of 12.8 µM.

Biological target: Sphingosine kinase 1 (Homo sapiens, UniProt Q9NYA1)
Test: Inhibition of SphK1 (unknown origin) using D-Sph as substrate incubated for 40 mins by ADP-Glo Plus luminescence kinase assay
Details: not given

Chain of Sphingosine kinase 1 (Q9NYA1 whole entry): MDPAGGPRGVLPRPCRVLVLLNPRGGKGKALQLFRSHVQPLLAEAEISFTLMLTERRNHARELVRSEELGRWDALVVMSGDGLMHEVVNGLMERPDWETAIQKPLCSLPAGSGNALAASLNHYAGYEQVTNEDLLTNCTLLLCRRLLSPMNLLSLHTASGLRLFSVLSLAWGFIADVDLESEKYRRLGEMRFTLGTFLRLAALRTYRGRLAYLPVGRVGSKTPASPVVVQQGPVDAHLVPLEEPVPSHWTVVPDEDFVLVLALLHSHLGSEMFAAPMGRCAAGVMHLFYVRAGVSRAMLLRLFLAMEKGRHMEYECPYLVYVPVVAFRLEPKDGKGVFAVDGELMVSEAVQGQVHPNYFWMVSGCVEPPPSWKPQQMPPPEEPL

O=C(c1ccc(OCc2noc(-c3ccc(Cl)cc3)n2)cc1)N1CCC[C@H]1CO and O=C(c1ccc(OCc2noc(-c3ccc(Cl)cc3)n2)cc1)N1CCC[C@@H]1CO are within 1.5-fold of each other in IC50: 8.96 µM for the first, 7.76 µM for the second.

Going from NC(=O)CNCc1ccc(COc2cccc(OCc3ccccc3)c2)cc1 to NC(=O)[C@H]1CCCN1Cc1ccc(COc2cccc(OCc3ccccc3)c2)cc1, the IC50 falls from 30.4 µM to 0.924 µM (33-fold). The second is the more potent here.

O=C(c1ccc(OCc2noc(-c3ccc(C(F)(F)F)cc3)n2)cc1)N1CCC[C@@H]1CO and NC(=O)[C@H]1CCCN1C(=O)c1ccc(OCc2noc(-c3ccc(C(F)(F)F)cc3)n2)cc1 are within 1.5-fold of each other in IC50: 17.7 µM for the first, 21.9 µM for the second.

Compared with OC[C@@H]1CCCN1Cc1ccc(COc2cccc(OCc3ccccc3)c2)cc1, NC(=O)[C@@H]1CCCN1C(=O)c1ccc(COc2cccc(OCc3ccccc3)c2)cc1 is 72-fold higher in IC50: 0.917 µM for the first, 66.2 µM for the second.

NCCNC(=O)c1ccc(OCc2noc(-c3ccc(Cl)cc3)n2)cc1 showed an IC50 of 1.47 µM.

Test system: MGC-803
Test: Antiproliferative activity against human MGC-803 cells assessed as cell growth inhibition measured after 48 hrs by MTT assay
Assay type: functional, cell-based
Details: MGC-803, 48 h

Compared with O=C(c1ccc(OCc2noc(-c3ccc(Cl)cc3)n2)cc1)N1CCC[C@H]1CO, O=C(c1ccc(OCc2noc(-c3ccc(Cl)cc3)n2)cc1)N1CCC[C@@H]1CO is 1.8-fold higher in IC50: 22.9 µM for the first, 40.3 µM for the second. The first is the more potent here.

NC(=O)CNCc1ccc(COc2cccc(OCc3ccccc3)c2)cc1 and NC(=O)[C@H]1CCCN1Cc1ccc(COc2cccc(OCc3ccccc3)c2)cc1 are within 1.5-fold of each other in IC50: 55.3 µM for the first, 65.2 µM for the second.

First: O=C(c1ccc(OCc2noc(-c3ccc(C(F)(F)F)cc3)n2)cc1)N1CCC[C@@H]1CO
Second: NC(=O)[C@H]1CCCN1C(=O)c1ccc(OCc2noc(-c3ccc(C(F)(F)F)cc3)n2)cc1
The IC50 of the first is 1.9-fold higher: 35.9 µM for the first, 19.2 µM for the second.

Going from OC[C@@H]1CCCN1Cc1ccc(COc2cccc(OCc3ccccc3)c2)cc1 to O=C(c1ccc(COc2cccc(OCc3ccccc3)c2)cc1)N1CCC[C@@H]1CO, the IC50 rises from 32.2 µM to 61.8 µM (1.9-fold).

NCCNC(=O)c1ccc(OCc2noc(-c3ccc(Cl)cc3)n2)cc1 and O=C(NCCO)c1ccc(OCc2noc(-c3ccc(Cl)cc3)n2)cc1 are within 1.5-fold of each other in IC50: 42 µM for the first, 37 µM for the second.

Going from NC(=O)[C@H]1CCCN1C(=O)c1ccc(COc2cccc(OCc3ccccc3)c2)cc1 to NC(=O)[C@@H]1CCCN1C(=O)c1ccc(COc2cccc(OCc3ccccc3)c2)cc1, the IC50 falls from > 81.5 µM to 38.6 µM.

For NC(=O)[C@@H]1CCCN1C(=O)c1ccc(OCc2noc(-c3ccc(C(F)(F)F)cc3)n2)cc1, the IC50 was 22.9 µM.

Test system: U-937
Test: Antiproliferative activity against human U-937 cells assessed as cell growth inhibition measured after 48 hrs by MTT assay
Assay type: functional, cell-based
Details: U-937, 48 h

First: O=C(c1ccc(OCc2noc(-c3ccc(Cl)cc3)n2)cc1)N1CCC[C@H]1CO
Second: O=C(c1ccc(OCc2noc(-c3ccc(Cl)cc3)n2)cc1)N1CCC[C@@H]1CO
The IC50 of the first is 5.9-fold higher: 17.3 µM for the first, 2.95 µM for the second.

Compared with NC(=O)CNCc1ccc(COc2cccc(OCc3ccccc3)c2)cc1, NC(=O)[C@H]1CCCN1Cc1ccc(COc2cccc(OCc3ccccc3)c2)cc1 is lower in IC50: > 82.3 µM for the first, 41.5 µM for the second.

Compared with O=C(c1ccc(OCc2noc(-c3ccc(C(F)(F)F)cc3)n2)cc1)N1CCC[C@@H]1CO, NC(=O)[C@H]1CCCN1C(=O)c1ccc(OCc2noc(-c3ccc(C(F)(F)F)cc3)n2)cc1 is 2-fold lower in IC50: 51.1 µM for the first, 25.6 µM for the second. The second is the more potent here.

Going from OC[C@@H]1CCCN1Cc1ccc(COc2cccc(OCc3ccccc3)c2)cc1 to O=C(c1ccc(COc2cccc(OCc3ccccc3)c2)cc1)N1CCC[C@@H]1CO, the IC50 rises from 37.6 µM to 69.5 µM (1.8-fold).

Compared with NCCNC(=O)c1ccc(OCc2noc(-c3ccc(Cl)cc3)n2)cc1, O=C(NCCO)c1ccc(OCc2noc(-c3ccc(Cl)cc3)n2)cc1 is 1.6-fold lower in IC50: 31.4 µM for the first, 20.1 µM for the second. The second is the more potent here.

Going from NC(=O)[C@H]1CCCN1C(=O)c1ccc(COc2cccc(OCc3ccccc3)c2)cc1 to NC(=O)[C@@H]1CCCN1C(=O)c1ccc(COc2cccc(OCc3ccccc3)c2)cc1, the IC50 rises from 45.6 µM to > 100 µM. The first is the more potent here.

For NC(=O)[C@@H]1CCCN1C(=O)c1ccc(OCc2noc(-c3ccc(C(F)(F)F)cc3)n2)cc1, the IC50 was 25.6 µM.

Biological target: T1, Sphingosine kinase 2
Test: Inhibition of SphK2 (unknown origin) using NBD-Sph as substrate by fluorescent plate reader analysis
Details: not given

O=C(c1ccc(OCc2noc(-c3ccc(Cl)cc3)n2)cc1)N1CCC[C@H]1CO and O=C(c1ccc(OCc2noc(-c3ccc(Cl)cc3)n2)cc1)N1CCC[C@@H]1CO cannot be ordered by IC50: > 10 µM for the first, > 10 µM for the second.

Compared with NC(=O)CNCc1ccc(COc2cccc(OCc3ccccc3)c2)cc1, NC(=O)[C@H]1CCCN1Cc1ccc(COc2cccc(OCc3ccccc3)c2)cc1 is higher in IC50: 0.0462 µM for the first, > 10 µM for the second.

O=C(c1ccc(OCc2noc(-c3ccc(C(F)(F)F)cc3)n2)cc1)N1CCC[C@@H]1CO and NC(=O)[C@H]1CCCN1C(=O)c1ccc(OCc2noc(-c3ccc(C(F)(F)F)cc3)n2)cc1 are within 1.5-fold of each other in IC50: 0.00343 µM for the first, 0.0024 µM for the second.

First: OC[C@@H]1CCCN1Cc1ccc(COc2cccc(OCc3ccccc3)c2)cc1
Second: O=C(c1ccc(COc2cccc(OCc3ccccc3)c2)cc1)N1CCC[C@@H]1CO
The IC50 of the first is 640-fold lower: 0.00191 µM for the first, 1.23 µM for the second. The first is the more potent here.

NCCNC(=O)c1ccc(OCc2noc(-c3ccc(Cl)cc3)n2)cc1 and O=C(NCCO)c1ccc(OCc2noc(-c3ccc(Cl)cc3)n2)cc1 cannot be ordered by IC50: > 10 µM for the first, > 10 µM for the second.

Compared with NC(=O)[C@H]1CCCN1C(=O)c1ccc(COc2cccc(OCc3ccccc3)c2)cc1, NC(=O)[C@@H]1CCCN1C(=O)c1ccc(COc2cccc(OCc3ccccc3)c2)cc1 is higher in IC50: 0.96 µM for the first, > 10 µM for the second.

With NC(=O)[C@@H]1CCCN1C(=O)c1ccc(OCc2noc(-c3ccc(C(F)(F)F)cc3)n2)cc1 the IC50 was > 10 µM.

Biological target: T2, Sphingosine kinase 2 (Homo sapiens) (UniProt Q9NRA0)
T2 sequence (whole entry): T1 sequence (Q9NRA0 whole entry)
Test: Inhibition of SphK2 (unknown origin) using NBD-Sph as substrate at 10 uM by fluorescent plate reader analysis relative to control
Details: not given

O=C(c1ccc(OCc2noc(-c3ccc(Cl)cc3)n2)cc1)N1CCC[C@H]1CO and O=C(c1ccc(OCc2noc(-c3ccc(Cl)cc3)n2)cc1)N1CCC[C@@H]1CO cannot be ordered by inhibition: < 50% for the first, < 50% for the second.

NCCNC(=O)c1ccc(OCc2noc(-c3ccc(Cl)cc3)n2)cc1 and O=C(NCCO)c1ccc(OCc2noc(-c3ccc(Cl)cc3)n2)cc1 cannot be ordered by inhibition: < 50% for the first, < 50% for the second.

Test system: MCF7
Test: Inhibition of cell migration in human MCF7 cells assessed as reduction in scratch healing rate measured after 24 to 48 hrs by microscopic analysis
Assay type: functional, cell-based
Details: dose 20-100 µM, time lower 24.0 hrs, time upper […]

For O=C(c1ccc(OCc2noc(-c3ccc(C(F)(F)F)cc3)n2)cc1)N1CCC[C@@H]1CO, the inhibition was “Dose-Dependent Effect”.
With NC(=O)[C@H]1CCCN1C(=O)c1ccc(OCc2noc(-c3ccc(C(F)(F)F)cc3)n2)cc1 the inhibition was “Dose-Dependent Effect”.
